“And” between values parts separate entries of the source, which are not always exact repeats. Equal entries are not always repeated. “Also recorded” adds a separate entry of the source.
Assays:
[1] = test system: human breast cancer MCF-7 cells; assay: Cell proliferation assay on MCF-7 cells; format: cell-based; conditions: MCF7, read-out: IC50, growth inhibition
[2] = test system: ROS generation in MCF-7 cells (NOX1/4 activity); assay: ROS production in MCF-7 cells (DCFDA assay); format: cell-based, human
[3] = test system: Breast patient VII PDX tumors; assay: Breast patient VII PDX model, combination with DOX; format: in vivo, nude mice
Experimental: Nude mice bearing orthotopic the Breast patient VII PDX tumors received 5 mg/kg equivalent dose of GKT831 or HANP/GKT831 combined with 5 mg/kg of DOX via the tail vein once a week for 5 administrations.
Therapy resistant breast cancer PDX models were established in nude mice from surgically resected tumor tissues of both hormonal receptor positive (HR+) and triple negative breast cancer patients. Patient VII PDX model was derived tumor from HR+ breast cancer tissue that progressed after neoadjuvant therapy with Dox+ Taxol and adjuvant radiotherapy (50 Gy). Patient IX PDX model was derived from a breast cancer tissue that was resistant to Dox/cyclophosphamide/Taxol therapy and 50 Gy of pre-operative radiation therapy. Both patients developed recurrent tumors and deceased 23 and 25 months after surgery. […] CD44 is the cellular receptor for HA and therefore, HANP can target to CD44+ tumor and stromal cells. […] The targeted delivery of near-infrared (NIR) 830 dye labeled HANPs in the breast cancer PDX models were examined using optical imaging and histological analysis. […] Accumulation of HANPs in the liver was further examined.
The inhibition of NOX1/4 on tumor growth and sensitization of therapeutic responses to a chemotherapy drug, DOX, were examined in the breast Patient VII and Patient IX PDX models growing in the mammary fat pad of nude mice.

[4] = test system: Breast patient IX PDX tumors; assay: Breast patient IX PDX model, combination with Dox; format: in vivo, nude mice
[5] = test system: Breast patient VII PDX tumors; assay: RNAseq gene expression profiles of PDX tumors after five i.v. treatments; format: in vivo, nude mice
Experimental: ATFB was increased by HANP/GKT831 but decrease in GKT831 treated tumor.
Biomaterial low molecular weight HA generated nanoparticle drug carrier has unique biological activities compared with other nanoparticle drug carriers. […] To understand molecular mechanisms by which HANP/GKT831 enhanced responses to DNA damaging drug and radiation, gene expression profiles of the breast patient VII PDX tumors following five i.v. treatments were analyzed using RNAseq assay. […] Since human immune cells express NOX2 subtype, HANP/GKT831 treatment may not affect tumor immune responses but GKT831 treatment may decrease immune responses in tumors. Furthermore, HANP/GKT831 inhibited the expression of mitochondrial electron transport and ATP production genes, which promote tumor cell death (FIG. 7B). […] Therefore, it is likely that those differences in gene regulation contributed to a strong chemo- and radiotherapy enhancement effect of HANP/GKT831.

Compound | IC50 [1] | ROS generation [2] | anti-tumor effect / tumor growth inhibition [3] | effect on tumor growth [4] | ATFB expression ([5]; PDX tumors (FIG. 7B)) | expression of mitochondrial electron transport and ATP production genes ([5]; PDX tumors (FIG. 7B)) | expression of mitochondrial electron transport and ATP production genes ([5]; PDX tumors (FIG. 7B), listed as GKT 831) | NOX2 gene expression ([5]; patient VII PDX tumors) | level of NOX4 gene expression ([5]; patient VII PDX tumors) | increase in tumor volume compared the starting tumor volume ([3]; 5 mg/kg i.v. weekly x5) | tumor growth inhibition compared to no treatment control ([3]; single agent treatment)
CN(C)c1cccc(-c2c3c(=O)n(-c4ccccc4Cl)[nH]c3cc(=O)n2C)c1 [GKT831, 2-(2-chlorophenyl)-4-(3-(dimethylamino)phenyl)-5-methyl-1,2-dihydro-3H-pyrazolo[4,3-c]pyridine-3,6(5H)-dione] | 30 µM | did not show obvious ROS reduction | did not show a significant difference | did not show a significant difference; also recorded: did not show any effect on tumor growth | decrease | increased MT-ND and MT-CO2 expression | upregulated the expression of some of those genes | downregulated | did not significantly affect | – | –
COc1cccc2c1C(=O)c1c(O)c3c(c(O)c1C2=O)C[C@@](O)(C(=O)CO)C[C@@H]3O[C@H]1C[C@H](N)[C@H](O)[C@H](C)O1 [DOX, doxorubicin] | – | – | – | – | – | – | – | – | – | 150% | ~40% and 60%

— US12377117B2, “Hyaluronic acid nanoparticles comprising NADPH oxidases inhibitors and uses in treating cancer” (priority 2019, dated 2025)
